Assay results published in PubChem BioAssay AID1963984 (Molecular Pharmacology Branch, DTP, NCI, 2024).

Test system: 233499-124-R-J3-PDC spheroids with HUVEC/MSC, viability
Assay: Anticancer human tumor 233499-124-R-J3-PDC patient-derived colon adenocarcinoma cell line growth inhibition [PI3K]
Conditions: for IC50: curve of first compound; for viability, T/C: stronger effect = lower value; active = viability on the fitted dose curve at most 10% of control; inactive = the rest
Method in brief: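 High-throughput combination screen: PI3K inhibitors crossed with targeted small molecules on complex spheroids of tumor cells, HUVEC and MSCs at 37 degrees C, 5% CO2. Top concentration was at or near clinical Cmax (otherwise 10 microM), with half-log decrements.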

[1] = second compound 0.00316 µM, first compound 0.0316 µM
[2] = second compound 0.00316 µM, first compound 0.1 µM
[3] = second compound 0.00316 µM, first compound 0.316 µM
[4] = second compound 0.00316 µM, first compound 1 µM
[5] = second compound 0.00316 µM, first compound 3.16 µM
[6] = second compound 0.00316 µM, first compound 10 µM
[7] = second compound 0.01 µM, first compound 0.0316 µM
[8] = second compound 0.01 µM, first compound 0.1 µM
[9] = second compound 0.01 µM, first compound 0.316 µM
[10] = second compound 0.01 µM, first compound 1 µM
[11] = second compound 0.01 µM, first compound 3.16 µM
[12] = second compound 0.01 µM, first compound 10 µM
[13] = second compound 0.0316 µM, first compound 0.0316 µM
[14] = second compound 0.0316 µM, first compound 0.1 µM
[15] = second compound 0.0316 µM, first compound 0.316 µM
[16] = second compound 0.0316 µM, first compound 1 µM
[17] = second compound 0.0316 µM, first compound 3.16 µM
[18] = second compound 0.0316 µM, first compound 10 µM
[19] = second compound 0.1 µM, first compound 0.0316 µM
[20] = second compound 0.1 µM, first compound 0.1 µM
[21] = second compound 0.1 µM, first compound 0.316 µM
[22] = second compound 0.1 µM, first compound 1 µM
[23] = second compound 0.1 µM, first compound 3.16 µM
[24] = second compound 0.1 µM, first compound 10 µM
[25] = second compound 0.316 µM, first compound 0.0316 µM
[26] = second compound 0.316 µM, first compound 0.1 µM
[27] = second compound 0.316 µM, first compound 0.316 µM
[28] = second compound 0.316 µM, first compound 1 µM
[29] = second compound 0.316 µM, first compound 3.16 µM
[30] = second compound 0.316 µM, first compound 10 µM
[31] = second compound 1 µM, first compound 0.0316 µM
[32] = second compound 1 µM, first compound 0.1 µM
[33] = second compound 1 µM, first compound 0.316 µM
[34] = second compound 1 µM, first compound 1 µM
[35] = second compound 1 µM, first compound 3.16 µM
[36] = second compound 1 µM, first compound 10 µM
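Note: spheroids exposed to agents for seven days before readout.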
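Throughout, for viability, T/C: percent viability relative to DMSO vehicle control taken as 100%.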

C#Cc1c(F)ccc2cc(O)cc(-c3ncc4c(N5CC6CCC(C5)N6)nc(OCC56CCCN5CC(F)C6)nc4c3F)c12 (stereo not given) + COc1c(OCCCN2CCOCC2)ccc2c3n(c(=NC(=O)c4cnc(N)nc4)nc12)CCN3
< 31.6 nM: IC50 (second compound 0.316 µM) | IC50 (second compound 1 µM)
active: viability, T/C [30] 4.16% | viability, T/C [31] 4.26% | viability, T/C [32] 9.48% | viability, T/C [33] 8.52% | viability, T/C [34] 3.87% | viability, T/C [35] 4.18% | viability, T/C [36] 2.6%
inactive: viability, T/C [1] 85.5% | viability, T/C [2] 100% | viability, T/C [3] 82.9% | viability, T/C [4] 95.1% | viability, T/C [5] 81% | viability, T/C [6] 67.2% | viability, T/C [7] 81.5% | viability, T/C [8] 95.2% | viability, T/C [9] 86.9% | viability, T/C [10] 91.6% | viability, T/C [11] 81.2% | viability, T/C [12] 80.8% | viability, T/C [13] 93.3% | viability, T/C [14] 91.3% | viability, T/C [15] 74.8% | viability, T/C [16] 92.7% | viability, T/C [17] 71.2% | viability, T/C [18] 68.7% | viability, T/C [19] 62.6% | viability, T/C [20] 86.5% | viability, T/C [21] 71.2% | viability, T/C [22] 63.5% | viability, T/C [23] 44.3% | viability, T/C [24] 29.7% | viability, T/C [25] 24.9% | viability, T/C [26] 26% | viability, T/C [27] 27.1% | viability, T/C [28] 11.7% | viability, T/C [29] 13.3%
2230 nM: IC50 (second compound 0.1 µM)
> 10000 nM: IC50 (second compound 0.00316 µM) | IC50 (second compound 0.01 µM) | IC50 (second compound 0.0316 µM)

C=CC(=O)N1CCN(c2nc(=O)n(-c3c(C)ccnc3C(C)C)c3nc(-c4c(O)cccc4F)c(F)cc23)C(C)C1 (stereo not given) + COc1c(OCCCN2CCOCC2)ccc2c3n(c(=NC(=O)c4cnc(N)nc4)nc12)CCN3
inactive: viability, T/C [1] 98.1% | viability, T/C [2] 103% | viability, T/C [3] 87.8% | viability, T/C [4] 97.7% | viability, T/C [5] 88.4% | viability, T/C [6] 119% | viability, T/C [7] 109% | viability, T/C [8] 101% | viability, T/C [9] 85.5% | viability, T/C [10] 86.5% | viability, T/C [11] 84.6% | viability, T/C [12] 113% | viability, T/C [13] 94.1% | viability, T/C [14] 98.3% | viability, T/C [15] 85.3% | viability, T/C [16] 95.6% | viability, T/C [17] 103% | viability, T/C [18] 92.5% | viability, T/C [19] 101% | viability, T/C [20] 73.4% | viability, T/C [21] 88% | viability, T/C [22] 58.9% | viability, T/C [23] 67.6% | viability, T/C [24] 82% | viability, T/C [25] 46.3% | viability, T/C [26] 39.4% | viability, T/C [27] 33.1% | viability, T/C [28] 36.4% | viability, T/C [29] 43.7% | viability, T/C [30] 36% | viability, T/C [31] 10% | viability, T/C [32] 7.27% | viability, T/C [33] 12.6% | viability, T/C [34] 6.71% | viability, T/C [35] 15.8% | viability, T/C [36] 7.62%
< 31.6 nM: IC50 (second compound 0.316 µM) | IC50 (second compound 1 µM)
> 10000 nM: IC50 (second compound 0.00316 µM) | IC50 (second compound 0.01 µM) | IC50 (second compound 0.0316 µM) | IC50 (second compound 0.1 µM)

CC(Cn1ccc(-c2ccc(C#N)c(Cl)c2)n1)NC(=O)c1cc(C(C)O)[nH]n1 (stereo not given) + COc1c(OCCCN2CCOCC2)ccc2c3n(c(=NC(=O)c4cnc(N)nc4)nc12)CCN3
active: viability, T/C [33] 7.23% | viability, T/C [34] 8.58% | viability, T/C [35] 5.75% | viability, T/C [36] 5.05%
inactive: viability, T/C [1] 92.3% | viability, T/C [2] 107% | viability, T/C [3] 102% | viability, T/C [4] 102% | viability, T/C [5] 101% | viability, T/C [6] 96.8% | viability, T/C [7] 91.7% | viability, T/C [8] 98.2% | viability, T/C [9] 73.9% | viability, T/C [10] 102% | viability, T/C [11] 98% | viability, T/C [12] 86.5% | viability, T/C [13] 86.6% | viability, T/C [14] 98.5% | viability, T/C [15] 100% | viability, T/C [16] 95.3% | viability, T/C [17] 77.1% | viability, T/C [18] 95.3% | viability, T/C [19] 83.7% | viability, T/C [20] 74.1% | viability, T/C [21] 70.4% | viability, T/C [22] 79% | viability, T/C [23] 55.1% | viability, T/C [24] 42.4% | viability, T/C [25] 30.9% | viability, T/C [26] 35.2% | viability, T/C [27] 32.5% | viability, T/C [28] 28.4% | viability, T/C [29] 23.6% | viability, T/C [30] 27% | viability, T/C [31] 14.8% | viability, T/C [32] 12.6%
< 31.6 nM: IC50 (second compound 0.316 µM) | IC50 (second compound 1 µM)
5040 nM: IC50 (second compound 0.1 µM)
> 10000 nM: IC50 (second compound 0.00316 µM) | IC50 (second compound 0.01 µM) | IC50 (second compound 0.0316 µM)

CC1(C)CCC(Nc2ncc(C(F)(F)F)c(-c3c[nH]c4c(P(C)(C)=O)c(C#N)ccc34)n2)CN1 (stereo not given) + COc1c(OCCCN2CCOCC2)ccc2c3n(c(=NC(=O)c4cnc(N)nc4)nc12)CCN3
active: viability, T/C [6] 5.37% | viability, T/C [24] 2.55% | viability, T/C [30] 1.17% | viability, T/C [32] 10.7% | viability, T/C [33] 8.48% | viability, T/C [34] 14.2% | viability, T/C [35] 6.77% | viability, T/C [36] 1.03%
102 nM: IC50 (second compound 0.1 µM)
205 nM: IC50 (second compound 0.01 µM)
< 31.6 nM: IC50 (second compound 0.316 µM) | IC50 (second compound 1 µM)
inactive: viability, T/C [1] 64.2% | viability, T/C [2] 73.2% | viability, T/C [3] 42% | viability, T/C [4] 29.5% | viability, T/C [5] 29.5% | viability, T/C [7] 56.5% | viability, T/C [8] 67.6% | viability, T/C [9] 42.7% | viability, T/C [10] 15.7% | viability, T/C [11] 25.4% | viability, T/C [12] 5.25% | viability, T/C [13] 58.4% | viability, T/C [14] 43.3% | viability, T/C [15] 29.8% | viability, T/C [16] 29.7% | viability, T/C [17] 37.7% | viability, T/C [18] 2.18% | viability, T/C [19] 58.3% | viability, T/C [20] 53.9% | viability, T/C [21] 37.2% | viability, T/C [22] 26.1% | viability, T/C [23] 23.7% | viability, T/C [25] 33.5% | viability, T/C [26] 29.4% | viability, T/C [27] 24.3% | viability, T/C [28] 14.7% | viability, T/C [29] 16.3% | viability, T/C [31] 8.22%
287 nM: IC50 (second compound 0.00316 µM)
56.7 nM: IC50 (second compound 0.0316 µM)

Cn1nccc1Nc1nccc(-c2ccn(C(CO)c3ccc(Cl)c(F)c3)c(=O)c2)n1 (stereo not given) + COc1c(OCCCN2CCOCC2)ccc2c3n(c(=NC(=O)c4cnc(N)nc4)nc12)CCN3
active: viability, T/C [30] 9.88% | viability, T/C [31] 5.63% | viability, T/C [32] 5.4% | viability, T/C [33] 6.24% | viability, T/C [34] 5.85% | viability, T/C [35] 2.1% | viability, T/C [36] 1.53%
> 10000 nM: IC50 (second compound 0.00316 µM) | IC50 (second compound 0.01 µM) | IC50 (second compound 0.0316 µM)
inactive: viability, T/C [1] 90.5% | viability, T/C [2] 86.6% | viability, T/C [3] 86.4% | viability, T/C [4] 91.4% | viability, T/C [5] 80.1% | viability, T/C [6] 70.1% | viability, T/C [7] 90% | viability, T/C [8] 78.2% | viability, T/C [9] 67.7% | viability, T/C [10] 78.3% | viability, T/C [11] 67% | viability, T/C [12] 56.3% | viability, T/C [13] 92.1% | viability, T/C [14] 75.9% | viability, T/C [15] 70.6% | viability, T/C [16] 65.9% | viability, T/C [17] 53.7% | viability, T/C [18] 54.3% | viability, T/C [19] 84.9% | viability, T/C [20] 72% | viability, T/C [21] 58.4% | viability, T/C [22] 46.2% | viability, T/C [23] 40.3% | viability, T/C [24] 24.4% | viability, T/C [25] 20.4% | viability, T/C [26] 37.7% | viability, T/C [27] 27.1% | viability, T/C [28] 14.2% | viability, T/C [29] 12%
< 31.6 nM: IC50 (second compound 0.316 µM) | IC50 (second compound 1 µM)
791 nM: IC50 (second compound 0.1 µM)
